The results in this text go back to patent US11873303B2, “Substituted pyrazoles as type II IRAK inhibitors” (Merck Patent GmbH, priority 2018, dated 2024).

Broadly, the IC50 is the concentration needed to halve the response being measured.

Some results are limits rather than exact numbers.

Experiment [1] has as its target T1, IRAK1 (human purified recombinant enzyme His-TEV-IRAK1 (194-712)) (Homo sapiens, UniProt P51617).
T1 construct: His-TEV-IRAK1 (194-712); His (N); TEV cleavage site (N)
Put plainly: IRAK1 enzymatic assay (ADP-Glo luminescence). It is filed as biochemical. As to conditions: human recombinant IRAK1, ATP 1 μM. The procedure: IRAK1 is a human purified recombinant enzyme (His-TEV-IRAK1 (194-712)). In this assay, IRAK1 hydrolysed ATP and autophosphorylated. Measurement of IRAK-1 inhibition was performed in 384-well format based on luminescence assay (ADP-Glo™ Kinase Assay from Promega). Purified human recombinant IRAK1 (0.3 μg/ml) and serial diluted compounds in DMSO (range of concentration from 10 μM to 0.5 nM) or controls (1% DMSO) were incubated for 15 minutes at RT in assay buffer containing 50 mM Hepes pH 7.0, Fatty acid-free BSA 0.1%, Dithiothreitol (DTT) 2 mM, MgCl2 10 mM, EGTA 0.5 mM, Triton X-100 0.01%. The kinase reaction was then initiated by the addition of ATP at a concentration of 1 μM. After 2 hours of incubation at RT, the reaction was stopped and the unconsumed ATP depleted by the addition of ADP-Glo™ Reagent according to supplier instructions. After 40 minutes of incubation at RT, the Kinase Detection Reagent was then added to the assay plate according to supplier instructions. After 20 minutes of incubation at RT, the luminescence signal was measured with a luminometer (PerkinElmer Envision or equivalent reader).
A general note: ADP-Glo first removes unused ATP, then detects ADP through luciferase.

Experiment [2] addresses T2, IRAK4 (human purified recombinant enzyme His-TEV-IRAK4 (1-460)) (Homo sapiens, UniProt Q9NWZ3).
T2 construct: His-TEV-IRAK4 (1-460); His (N); TEV cleavage site (N)
T2 sequence (Q9NWZ3 1-460): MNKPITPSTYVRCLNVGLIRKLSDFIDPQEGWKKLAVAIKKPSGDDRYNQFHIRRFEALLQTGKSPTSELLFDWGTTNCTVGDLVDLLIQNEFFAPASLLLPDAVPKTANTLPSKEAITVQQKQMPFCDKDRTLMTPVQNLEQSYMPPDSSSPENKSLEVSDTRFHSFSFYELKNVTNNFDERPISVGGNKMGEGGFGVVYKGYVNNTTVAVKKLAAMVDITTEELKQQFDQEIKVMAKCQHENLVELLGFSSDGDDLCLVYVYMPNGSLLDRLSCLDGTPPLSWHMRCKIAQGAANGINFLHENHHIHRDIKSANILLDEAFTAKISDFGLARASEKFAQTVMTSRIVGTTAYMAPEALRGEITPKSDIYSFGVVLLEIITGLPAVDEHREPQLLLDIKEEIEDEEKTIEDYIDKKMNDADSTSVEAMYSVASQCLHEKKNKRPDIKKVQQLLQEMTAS
Description: IRAK4 enzymatic assay (ADP-Glo luminescence). Type of experiment: biochemical. As to conditions: human recombinant IRAK4, ATP 2 μM, STK1-biotin peptide. The procedure: IRAK4 is a human purified recombinant enzyme (His-TEV-IRAK4 (1-460)). In this assay, IRAK4 hydrolysed ATP, autophosphorylated and phosphorylated a Serine/Threonine generic peptidic substrate (STK: 61ST1BLC from CisBio International). Measurement of IRAK-4 inhibition was performed in 384-well format based on a luminescence assay (ADP-Glo™ Kinase Assay from Promega). Purified human recombinant IRAK4 (0.3 μg/ml) and serial diluted compounds in DMSO (range of concentration from 10 μM to 0.5 nM) or controls (1% DMSO) were incubated for 15 minutes at RT in assay buffer containing 50 mM Hepes pH 7.0, Fatty acid-free BSA 0.1%, Dithiothreitol (DTT) 2 mM, MgCl2 10 mM, EGTA 0.5 mM, Triton X-100 0.01%, MnCl2 5 mM. The kinase reaction was then initiated by the addition of ATP (2 μM) and the peptidic substrate STK1-biotin peptide (300 nM). After 2 hours of incubation at RT, the reaction was stopped and the unconsumed ATP depleted by the addition of ADP-Glo™ Reagent according to supplier instructions. After 40 minutes of incubation at RT, the Kinase Detection Reagent was then added to the assay plate according to supplier instructions. After 20 minutes of incubation at RT, the luminescence signal was measured with a plate-reading luminometer (PerkinElmer Envision or equivalent reader).

Experiment [3] relates to TLR7 induced IL-6 secretion in human mononuclear cells (PBMC's). Put plainly: TLR7 induced IL-6 in human PBMC's. It is filed as cell-based. Particulars: TLR7 ligand 2 uM overnight, IL-6 AlphaLISA. The procedure: TLR7 Induced IL-6 in Human PBMC's
Human PBMC assay was used as one of the functional assays to monitor the activity of IRAK1 and IRAK4 small molecule inhibitors on TLR7 induced IL-6 secretion in human mononuclear cells (PBMC's). Human PBMCs were prepared from buffy coats (whole blood enriched with leukocytes and platelets) obtained from healthy volunteers used either fresh or frozen were plated in assay media (RPMI+2% P/S/L-glu+10% HI-FBS) and pre-treated with compounds in DMSO/media (range of concentrations from 25 uM to 0.4 nM) or controls (0.25% DMSO) for 30 minutes at 37° C. in assay media. Following pre-treatment with IRAK1 and IRAK4 inhibitors, PBMC's were stimulated with TLR7 specific ligand (2 uM) overnight (16-18 hrs) at 37° C. After incubation supernatant was transferred to 384 well PE AlphaPlate-384 and IL-6 was quantified using Perkin Elmer IL-6 Alpha LISA kit (AL223C). Plates were read on an Envision® plate reader with Alpha Technology®.
Background: Bead proximity is the source of the signal in Alpha formats.

T1 sequence (P51617 194-712): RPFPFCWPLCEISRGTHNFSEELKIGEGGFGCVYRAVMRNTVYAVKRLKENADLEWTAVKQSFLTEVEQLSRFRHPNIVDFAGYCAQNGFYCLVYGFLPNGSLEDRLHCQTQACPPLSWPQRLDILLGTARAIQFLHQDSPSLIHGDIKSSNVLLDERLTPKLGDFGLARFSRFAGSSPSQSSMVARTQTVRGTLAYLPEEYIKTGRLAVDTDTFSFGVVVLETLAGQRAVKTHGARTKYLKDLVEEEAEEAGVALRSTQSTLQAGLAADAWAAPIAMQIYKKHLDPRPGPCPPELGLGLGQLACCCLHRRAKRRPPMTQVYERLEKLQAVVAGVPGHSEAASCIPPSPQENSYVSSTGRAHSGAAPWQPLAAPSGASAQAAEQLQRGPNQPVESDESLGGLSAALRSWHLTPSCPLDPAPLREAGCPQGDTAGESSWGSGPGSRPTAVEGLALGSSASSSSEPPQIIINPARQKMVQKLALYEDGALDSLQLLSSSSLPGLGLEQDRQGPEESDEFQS

In the case of `CC(C)c1ccc(-n2nc(C(C)(C)C)cc2NC(=O)Cc2ccc(-c3nn(C)c4ncnc(N)c34)cc2F)cc1` [Example 16, 2-[4-(4-Amino-1-methyl-1H-pyrazolo[3,4-d]pyrimidin-3-yl)-2-fluoro-phenyl]-N-[5-tert-butyl-2-(4-isopropyl-phenyl)-2H-pyrazol-3-yl]-acetamide], the IC50 was less than 100 nM in experiment [1], 100 to 1000 nM in experiment [2] and 1000 to 5000 nM in experiment [3].
On the same counts, the results for `Cc1ccc(-n2nc(C(C)(C)C)cc2NC(=O)Nc2ccc(-c3nn(C)c4ncnc(N)c34)c(F)c2)cc1` [Example 2, 1-[4-(4-Amino-1-methyl-1H-pyrazolo[3,4-d]pyrimidin-3-yl)-3-fluoro-phenyl]-3-(5-tert-butyl-2-p-tolyl-2H-pyrazol-3-yl)-urea] are less than 100 nM, less than 100 nM and less than 100 nM.
For the compound `Cc1ccc(-n2nc(C(C)(C)C(F)(F)F)cc2NC(=O)Nc2ccc(-c3csc4ncnc(N)c34)cc2Cl)cc1` [Example 24, 1-[4-(4-Amino-thieno[2,3-d]pyrimidin-5-yl)-2-chloro-phenyl]-3-[2-p-tolyl-5-(2,2,2-trifluoro-1,1-dimethyl-ethyl)-2H-pyrazol-3-yl]-urea], the 50% inhibitory concentration (IC50) in experiment [1] is less than 100 nM; in experiment [2], 100 to 1000 nM; in experiment [3], less than 100 nM.
As for `Cc1ccc(-n2nc(C(F)(F)F)cc2NC(=O)Nc2ccc(-c3nn(C)c4ncnc(N)c34)c(F)c2)cc1` [Example 13, 1-[4-(4-Amino-1-methyl-1H-pyrazolo[3,4-d]pyrimidin-3-yl)-3-fluoro-phenyl]-3-(2-p-tolyl-5-trifluoromethyl-2H-pyrazol-3-yl)-urea], the figures for the IC50 in experiment [1], in experiment [2] and in experiment [3] were 100 to 1000 nM, more than 5000 nM and 100 to 1000 nM, respectively.
With `Cc1ccc(-n2nc(C(C)(C)C)cc2NC(=O)Nc2ccc(-c3csc4ncnc(N)c34)c(F)c2)cc1` [Example 6, 1-[4-(4-Amino-thieno[2,3-d]pyrimidin-5-yl)-3-fluoro-phenyl]-3-(5-tert-butyl-2-p-tolyl-2H-pyrazol-3-yl)-urea], the IC50 is less than 100 nM in experiment [1], 100 to 1000 nM in experiment [2] and less than 100 nM in experiment [3].
Consider `Cc1ccc(-n2nc(C(C)(C)C)cc2NC(=O)Nc2ccc(-c3nn(C)c4ncnc(N)c34)cc2Cl)cc1` [Example 5, 1-[4-(4-Amino-1-methyl-1H-pyrazolo[3,4-d]pyrimidin-3-yl)-2-chloro-phenyl]-3-(5-tert-butyl-2-p-tolyl-2H-pyrazol-3-yl)-urea], for which the IC50 in experiment [1], in experiment [2] and in experiment [3] was less than 100 nM in each case.
As for `Cn1nc(-c2ccc(NC(=O)Nc3cc(C(C)(C)C)nn3-c3ccc(C#N)cc3)c(Cl)c2)c2c(N)ncnc21` [Example 28, 1-(4-{4-amino-1-methyl-1H-pyrazolo[3,4-d]pyrimidin-3-yl}-2-chlorophenyl)-3-[3-tert-butyl-1-(4-cyanophenyl)-1H-pyrazol-5-yl]urea], the IC50 was less than 100 nM in experiment [1] and 100 to 1000 nM in experiment [2].
`Cc1ccc(-n2nc(C(C)(C)C)cc2NC(=O)NC2CC=C(c3cn(C)c4ncnc(N)c34)CC2)cc1` (stereo not drawn) [Example 25, 1-[4-(4-Amino-7-methyl-7H-pyrrolo[2,3-d]pyrimidin-5-yl)-cyclohex-3-enyl]-3-(5-tert-butyl-2-p-tolyl-2H-pyrazol-3-yl)-urea]: the IC50 in experiment [1] and in experiment [2] was less than 100 nM in each case.
For the compound `Cc1ccc(-n2nc(C(C)(C)C)cc2NC(=O)Nc2ccc(-c3nn(C)c4ncnc(N)c34)cc2Cl)cc1F` [Example 29, 1-[4-(4-Amino-1-methyl-1H-pyrazolo[3,4-d]pyrimidin-3-yl)-2-chloro-phenyl]-3-[5-tert-butyl-2-(3-fluoro-4-methyl-phenyl)-2H-pyrazol-3-yl]-urea], the values for the IC50 in experiment [1] and in experiment [2] were less than 100 nM and 100 to 1000 nM, respectively.
